Here are results for five molecules from paper PMC11869560, “Anticancer and cancer preventive activities of shogaol and curcumin from Zingiberaceae family plants in KG-1a leukemic stem cells” (BMC Complementary Medicine and Therapies, 2025).

Assay [1] relates to KG-1a cells. Kind of assay: MTT cytotoxicity assay in KG-1a cells. Format: cell-based, human. Conditions: for Selectivity index (SI): IC50 for normal cells (PBMCs) / IC50 for cancer cells (KG-1a). On the procedure:
(§1) MTT (3-(4,5-dimethylthiazol-2-yl)-2,5-diphenyltetrazolium bromide) assay was used to investigate the cytotoxicity of the test samples. KG-1a (1.5 × 10^4 cells/well), K562 (1.0 × 10^4 cells/well), PBMCs (1.0 × 10^5 cells/well), A549 (5.0 × 10^3 cells/well), MCF-7 (5.0 × 10^3 cells/well), and HeLa (5.0 × 10^3 cells/well) were seeded into a 96-well plate and incubated overnight at 37 °C with 5% CO2. […] After that, 5 mg/mL of MTT dye solution (Sigma-Aldrich, MA, USA) was added and incubated for 4 h. The produced formazan crystals were dissolved in 200 µL of DMSO (Sigma-Aldrich, MA, USA); then, the optical density (OD) was measured using an ELISA plate reader (Metertech, Taipei, Taiwan) at 578 nm with a reference wavelength of 630 nm. The percentage of surviving cells was calculated from the absorbance values of the test and control wells using the following Equation. 1 [drawing 1]
(§2) where ODsample is a mean absorbance in test well and ODvehicle control is a mean absorbance in VC well. The average percentage of surviving cells at each concentration obtained from triplicate experiments was plotted as a dose-response curve. Inhibitory concentration values at 50% growth (IC50 value) were defined as the lowest concentration of the test sample that inhibited cell growth by 50% compared to the untreated control.
(§3) To calculate IC50 values, a dose-response curve was fitted using non-linear regression analysis, as described in the GraphPad Prism guidelines (https://www.graphpad.com/support/faq/how-to-determine-an-icsub50sub/). The IC50 value was obtained by determining the point at which the curve intersected 50% growth inhibition. Non-linear regression graphs of the dose-response curve for each compound are provided in the supplementary data file (Figs. S1–S8).
where IC50 N is IC50 for normal cells and IC50 C is IC50 for cancer cells which were treated with the same compounds in both cells.
A general note: Formazan colour is commonly taken as a measure of viable cells.

A further assay concerns PBMCs. Kind of assay: MTT cytotoxicity assay in PBMCs. Format: cell-based, human. Conditions: Homo sapiens, PBMC. On the procedure:
PBMCs were isolated from blood samples using the Ficoll-Hypaque technique. Initially, 10–20 mL of blood was collected in a heparin tube at a ratio of 1:500 from a minimum of three healthy volunteers. Subsequently, the blood samples were diluted with Phosphate buffer saline (PBS), pH 7.4, at a ratio of 1:1 to reduce viscosity. Histopaque-1077 (Sigma-Aldrich, MA, USA) was then underlaid the diluted sample and centrifuged at 400×g for 30 min. The resulting PBMCs were collected, washed with PBS, pH 7.4, and prepared for further experiments.
as §1, §2, §3

Assay [2] concerns KG-1a cells. Kind of assay: Trypan blue exclusion test, cell numbers of KG-1a cells. Format: cell-based, human. Conditions: IC20 concentrations, 48 h. The procedure: This test was used to confirm the cytotoxicity of the test samples. The cancer cells after exposure to crude ethanolic extracts and active compounds for 48 h were harvested and washed with ice-cold PBS, pH 7.4 for 3 times. Then, the cells were resuspended with PBS, pH 7.4. The cell suspensions were diluted with PBS, pH 7.4 at the appropriate dilution before being mixed with 0.2% trypan blue solution at 1:2 dilution for cell count on a hemocytometer. From this test, the viable cells and the dead cells could also be obviously detected.
This test was used to confirm the cytotoxicity of crude ethanolic extracts and active compounds. KG-1a cells after exposure to crude ethanolic extracts and active compounds for 48 h were harvested and washed with ice-cold PBS, pH 7.4 for 3 times. Then, the cells were resuspended with PBS, pH 7.4. The cell suspensions were diluted with PBS, pH 7.4 at the appropriate dilution before being mixed with 0.2% trypan blue solution at 1:2 dilution for cell count on a hemocytometer. From this test, the viable cells and the dead cells could also be obviously detected.

Another assay concerns RAW264.7 cells. Kind of assay: Cytotoxicity (IC20, cell viability) in RAW264.7 cells. Format: cell-based. The note with it: Mus musculus, RAW264.7; incubation for 48 h; read-out: IC20 RAW264.7 (inhibitory concentration at 20% growth). The procedure:
MTT (3-(4,5-dimethylthiazol-2-yl)-2,5-diphenyltetrazolium bromide) assay was used to investigate the cytotoxicity of the test samples. […] After that, 5 mg/mL of MTT dye solution (Sigma-Aldrich, MA, USA) was added and incubated for 4 h. The produced formazan crystals were dissolved in 200 μL of DMSO (Sigma-Aldrich, MA, USA); then, the optical density (OD) was measured using an ELISA plate reader ([…], Taiwan) at 578 nm with a reference wavelength of 630 nm. The percentage of surviving cells was calculated from the absorbance values of the test and control wells using the following Equation. 1 [drawing 1] […] Afterward, supernatants were collected, and the levels of TNF-α and NO were measured using the Mouse TNF alpha Uncoated ELISA Kit (InvitrogenTM, ThermoFisher Scientific, MA, USA) and the Total Nitric Oxide Assay Kit (InvitrogenTM, ThermoFisher Scientific, MA, USA), respectively, according to the manufacturer's instructions.

Where [3] appears, read: Homo sapiens, KG-1a, 48 h, active compounds and drugs, MTT, 48 h, read-out: IC50 KG-1a.
[4] abbreviates: Homo sapiens, KG-1a, Table S7, KG-1a, first replicate, read-out: IC50 value R1.
Where [5] appears, read: Homo sapiens, KG-1a, Table S7, KG-1a, mean of R1-R3, read-out: IC50 value Mean.
Where [6] appears, read: Homo sapiens, KG-1a, Table S7, KG-1a, second replicate, read-out: IC50 value R2.
Setting [7] is: Homo sapiens, KG-1a, Table S7, KG-1a, third replicate, read-out: IC50 value R3.
Where [8] appears, read: Table S8, PBMCs, first replicate, read-out: IC50 value R1.
Setting [9] is: Table S8, PBMCs, mean of R1-R3, read-out: IC50 value Mean.
Setting [10] is: Table S8, PBMCs, second replicate, read-out: IC50 value R2.
Setting [11] is: Table S8, PBMCs, third replicate, read-out: IC50 value R3.
The mark [12] stands for this setting: active compounds and drugs, MTT, 48 h, read-out: IC50 PBMCs.
[13] abbreviates: Homo sapiens, KG-1a, 48 h, drugs, MTT, 48 h, read-out: IC50 KG-1a.
[14] abbreviates: drugs, MTT, 48 h, read-out: IC50 PBMCs.

SMILES strings stand for the structures. Values after ≈ are worked out from the molar mass of the structure shown. Like-named read-outs stand apart in the source and are kept apart here. A value given as a limit tells only on which side of the number the result lay.

Consider `Nc1ccn([C@@H]2O[C@H](CO)[C@@H](O)[C@@H]2O)c(=O)n1` [Cytarabine, cytarabine, reference compound], for which the IC50 in the assay on KG-1a cells [1] (setting [3]), in the assay with KG-1a cells [1] (setting [4]), with KG-1a cells [1] (setting [5]), in the assay on KG-1a cells [1] (setting [6]), with KG-1a cells [1] (setting [7]) and with PBMCs (setting [8]) was more than 100 µg/mL each time. Also, the IC50 in the assay on PBMCs (setting [9]), in the assay on PBMCs (setting [10]), with PBMCs (setting [11]) and in the assay with PBMCs (setting [12]) was more than 100 µg/mL in each case. Further, the “Selectivity index (SI)” value in the assay with KG-1a cells [1] (48 h) was more than 1.

Take `O=P1(N(CCCl)CCCl)NCCCO1` (centres unmarked) [Cyclophosphamide, cyclophosphamide, reference compound]: the IC50 in the assay on KG-1a cells [1] (Homo sapiens, KG-1a, 48 h, read-out: IC50 KG-1a) is more than 400 µg/mL; with KG-1a cells [1] (Homo sapiens, KG-1a, read-out: IC50 value Mean), more than 400 µg/mL; in the assay on KG-1a cells [1] (Homo sapiens, KG-1a, read-out: IC50 value R1) it was more than 400 µg/mL; with KG-1a cells [1] (Homo sapiens, KG-1a, read-out: IC50 value R2), more than 400 µg/mL; with KG-1a cells [1] (Homo sapiens, KG-1a, read-out: IC50 value R3), more than 400 µg/mL; in the assay with PBMCs (48 h, read-out: IC50 PBMCs), more than 400 µg/mL. The IC50 with PBMCs (read-out: IC50 value Mean), in the assay on PBMCs (read-out: IC50 value R1), in the assay on PBMCs (read-out: IC50 value R2) and with PBMCs (read-out: IC50 value R3) was more than 400 µg/mL throughout.

`CC(=O)[C@]1(O)Cc2c(O)c3c(c(O)c2[C@@H](O[C@H]2C[C@H](N)[C@H](O)[C@H](C)O2)C1)C(=O)c1ccccc1C3=O` [Idarubicin, idarubicin, reference compound]: the IC50 in the assay on KG-1a cells [1] (setting [13]) was 0.0313 ± 0.00504 µg/mL (≈ 0.0629 µM); in the assay with KG-1a cells [1] (setting [4]), 0.0259 µg/mL (≈ 0.052 µM); with KG-1a cells [1] (setting [5]), 0.0279 µg/mL (≈ 0.0561 µM); in the assay on KG-1a cells [1] (setting [6]) it was 0.0318 µg/mL (≈ 0.0639 µM); with KG-1a cells [1] (setting [7]), 0.026 µg/mL (≈ 0.0522 µM); in the assay on PBMCs (setting [8]), more than 1 µg/mL. Further, the IC50 with PBMCs (setting [9]), in the assay on PBMCs (setting [10]), in the assay on PBMCs (setting [11]) and in the assay with PBMCs (setting [14]) was more than 1 µg/mL in each case.

Consider `COc1cccc2c1C(=O)c1c(O)c3c(c(O)c1C2=O)C[C@@](O)(C(=O)CO)C[C@@H]3O[C@H]1C[C@H](N)[C@H](O)[C@H](C)O1` [Doxorubicin, doxorubicin, reference compound], for which the IC50 was 0.652 ± 0.142 µg/mL (≈ 1.2 µM) with KG-1a cells [1] (setting [13]); 0.807 µg/mL (≈ 1.48 µM) in the assay on KG-1a cells [1] (setting [4]); 0.622 µg/mL (≈ 1.14 µM) with KG-1a cells [1] (setting [6]); 0.528 µg/mL (≈ 0.971 µM) in the assay with KG-1a cells [1] (setting [7]); more than 1 µg/mL in the assay with PBMCs (setting [8]); more than 1 µg/mL in the assay with PBMCs (setting [9]). Moreover, the IC50 with PBMCs (setting [10]), in the assay on PBMCs (setting [11]) and with PBMCs (setting [14]) was more than 1 µg/mL in each case. The “Selectivity index (SI)” value with KG-1a cells [1] (48 h) was more than 1.53; in the assay on KG-1a cells [1] (48 h, listed as doxorubicin) it was “greater than 1”.

`O=C(/C=C/c1ccc(O)cc1)CC(=O)/C=C/c1ccc(O)cc1` [Bisdemethoxycurcumin, bisdemethoxycurcumin]: the IC50 in the assay on KG-1a cells [1] (setting [3]) was 17.9 ± 0.99 µg/mL (≈ 58.1 µM); in the assay with KG-1a cells [1] (setting [4]) it was 17.1 µg/mL (≈ 55.6 µM); with KG-1a cells [1] (setting [6]), 17.6 µg/mL (≈ 57 µM); in the assay on KG-1a cells [1] (setting [7]) it was 19 µg/mL (≈ 61.7 µM); with PBMCs (setting [8]), 12.6 µg/mL (≈ 40.7 µM); in the assay with PBMCs (setting [10]) it was 12.2 µg/mL (≈ 39.4 µM). For the same molecule, the IC50 in the assay on PBMCs (setting [11]) was determined as 10.2 µg/mL (≈ 33.1 µM); in the assay with PBMCs (setting [12]), 11.6 ± 1.25 µg/mL (≈ 37.8 µM). Besides, the IC20 with KG-1a cells [1] (Homo sapiens, KG-1a, 48 h, incubation for 48 h, read-out: IC20 KG-1a (inhibitory concentration at 20% growth)) is 7.97 ± 2.07 µg/mL (≈ 25.8 µM); with PBMCs (incubation for 48 h, read-out: IC20 PBMCs (inhibitory concentration at 20% growth)) it was 6.9 ± 1.59 µg/mL (≈ 22.4 µM); in the assay with RAW264.7 cells, 2.71 ± 0.62 µg/mL (≈ 8.79 µM). In addition, the “Selectivity index (SI)” value in the assay with KG-1a cells [1] (48 h) was 0.65. Besides, the “decrease of total cell number compared to VC” value in the assay with KG-1a cells [2] amounted to 47.21 ± 7.98%. In addition, in the assay on KG-1a cells [2], the “normalized viable cell counts” value is 962.81 ± 19.30 × 10^3 cells per 1 million total cells.

A word on the IC50: it is the concentration that inhibits the measured activity by half.
